Measurements from PubChem BioAssay (NCI).
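Protocol summary: plate cells (96-well), add compound at 5 concentrations, incubate 48 h, interpolate endpoints linearly. TGI marks complete inhibition of growth.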

Experiments:
Assay in all cases: DTP human tumour cell line panel, 48 h
OVCAR-4 ovarian = system: OVCAR-4 ovarian
786-0 renal = system: 786-0 renal
HT29 colon = system: HT29 colon
A549 NSCLC = system: A549 NSCLC
NCI-H226 lung = system: NCI-H226 lung
DMS 273 small cell lung = system: DMS 273 small cell lung
LXFL 529 NSCLC = system: LXFL 529 NSCLC
DLD-1 colon = system: DLD-1 colon
SK-OV-3 ovarian = system: SK-OV-3 ovarian
SNB-78 CNS = system: SNB-78 CNS
ACHN renal = system: ACHN renal
LOX IMVI melanoma = system: LOX IMVI melanoma
IGROV1 ovarian = system: IGROV1 ovarian
TK-10 renal = system: TK-10 renal
OVCAR-3 ovarian = system: OVCAR-3 ovarian
SF-539 CNS = system: SF-539 CNS
CCRF-CEM leukemia = system: CCRF-CEM leukemia
M14 melanoma = system: M14 melanoma
SK-MEL-5 melanoma = system: SK-MEL-5 melanoma
NCI-H522 lung = system: NCI-H522 lung
SNB-75 CNS = system: SNB-75 CNS
U251 CNS = system: U251 CNS
HOP-18 NSCLC = system: HOP-18 NSCLC
OVCAR-8 ovarian = system: OVCAR-8 ovarian
SF-295 CNS = system: SF-295 CNS
SR leukemia = system: SR leukemia
KM12 colon = system: KM12 colon
DMS 114 small cell lung = system: DMS 114 small cell lung
NCI-H23 lung = system: NCI-H23 lung
SNB-19 CNS = system: SNB-19 CNS
NCI-H460 lung = system: NCI-H460 lung
OVCAR-5 ovarian = system: OVCAR-5 ovarian
A498 renal = system: A498 renal
MALME-3M melanoma = system: MALME-3M melanoma
K-562 leukemia = system: K-562 leukemia
KM20L2 colon = system: KM20L2 colon
RXF 393 renal = system: RXF 393 renal
SK-MEL-2 melanoma = system: SK-MEL-2 melanoma
SW-620 colon = system: SW-620 colon
EKVX NSCLC = system: EKVX NSCLC
UO-31 renal = system: UO-31 renal
SF-268 CNS = system: SF-268 CNS
HL-60(TB) leukemia = system: HL-60(TB) leukemia
COLO 205 colon = system: COLO 205 colon
M19-MEL melanoma = system: M19-MEL melanoma
HOP-62 NSCLC = system: HOP-62 NSCLC
HCC-2998 colon = system: HCC-2998 colon
SN12C renal = system: SN12C renal
UACC-257 melanoma = system: UACC-257 melanoma
XF 498 CNS = system: XF 498 CNS
HOP-92 NSCLC = system: HOP-92 NSCLC
CAKI-1 renal = system: CAKI-1 renal
HCT-116 colon = system: HCT-116 colon
MOLT-4 leukemia = system: MOLT-4 leukemia
SK-MEL-28 melanoma = system: SK-MEL-28 melanoma
RPMI-8226 leukemia = system: RPMI-8226 leukemia
UACC-62 melanoma = system: UACC-62 melanoma
HCT-15 colon = system: HCT-15 colon

How did the TGI (OVCAR-4 ovarian) turn out when `[N-]=[N+]=Nc1ncnc2c1sc(=S)n2-c1ccccc1` was run?
Its TGI is over 100 µM.

What about the TGI (786-0 renal) of the same compound?
The TGI was over 100 µM.

What about the TGI (HT29 colon) of the same compound?
The TGI was over 100 µM.

And the TGI (A549 NSCLC)?
Its TGI is over 100 µM.

And the TGI (NCI-H226 lung)?
The TGI was over 100 µM.

And the TGI (DMS 273 small cell lung)?
Its TGI is over 100 µM.

What about the TGI (LXFL 529 NSCLC) of the same compound?
Its TGI is over 100 µM.

And the TGI (DLD-1 colon)?
The TGI was over 100 µM.

What about the TGI (SK-OV-3 ovarian) of the same compound?
The TGI was over 100 µM.

What about the TGI (SNB-78 CNS) of the same compound?
Its TGI is over 100 µM.

What about the TGI (ACHN renal) of the same compound?
The TGI was over 100 µM.

And the TGI (LOX IMVI melanoma)?
Its TGI is over 100 µM.

What about the TGI (IGROV1 ovarian) of the same compound?
The TGI was over 100 µM.

And the TGI (TK-10 renal)?
The TGI was over 100 µM.

What about the TGI (OVCAR-3 ovarian) of the same compound?
Its TGI is over 100 µM.

What about the TGI (SF-539 CNS) of the same compound?
The TGI was over 100 µM.

And the TGI (CCRF-CEM leukemia)?
The TGI was over 100 µM.

And the TGI (M14 melanoma)?
Its TGI is over 100 µM.

What about the TGI (SK-MEL-5 melanoma) of the same compound?
Its TGI is over 100 µM.

What about the TGI (NCI-H522 lung) of the same compound?
The TGI was over 100 µM.

And the TGI (SNB-75 CNS)?
Its TGI is over 100 µM.

What about the TGI (U251 CNS) of the same compound?
The TGI was over 100 µM.

And the TGI (HOP-18 NSCLC)?
The TGI was over 100 µM.

And the TGI (OVCAR-8 ovarian)?
The TGI was over 100 µM.

What about the TGI (SF-295 CNS) of the same compound?
The TGI was over 100 µM.

And the TGI (SR leukemia)?
The TGI was over 100 µM.

And the TGI (KM12 colon)?
Its TGI is over 100 µM.

What about the TGI (DMS 114 small cell lung) of the same compound?
The TGI was over 100 µM.

And the TGI (NCI-H23 lung)?
The TGI was over 100 µM.

And the TGI (SNB-19 CNS)?
The TGI was over 100 µM.

And the TGI (NCI-H460 lung)?
The TGI was over 100 µM.

What about the TGI (OVCAR-5 ovarian) of the same compound?
Its TGI is over 100 µM.

And the TGI (A498 renal)?
Its TGI is over 100 µM.

What about the TGI (MALME-3M melanoma) of the same compound?
Its TGI is over 100 µM.

What about the TGI (K-562 leukemia) of the same compound?
Its TGI is over 100 µM.

What about the TGI (KM20L2 colon) of the same compound?
The TGI was over 100 µM.

And the TGI (RXF 393 renal)?
Its TGI is over 100 µM.

What about the TGI (SK-MEL-2 melanoma) of the same compound?
The TGI was over 100 µM.

And the TGI (SW-620 colon)?
The TGI was over 100 µM.

And the TGI (EKVX NSCLC)?
Its TGI is over 100 µM.

What about the TGI (UO-31 renal) of the same compound?
The TGI was over 100 µM.

And the TGI (SF-268 CNS)?
Its TGI is over 100 µM.

And the TGI (HL-60(TB) leukemia)?
Its TGI is over 100 µM.

And the TGI (COLO 205 colon)?
The TGI was over 100 µM.

What about the TGI (M19-MEL melanoma) of the same compound?
The TGI was over 100 µM.

And the TGI (HOP-62 NSCLC)?
Its TGI is 52.7 µM.

And the TGI (HCC-2998 colon)?
The TGI was over 100 µM.

And the TGI (SN12C renal)?
The TGI was over 100 µM.

What about the TGI (UACC-257 melanoma) of the same compound?
Its TGI is over 100 µM.

And the TGI (XF 498 CNS)?
The TGI was over 100 µM.

What about the TGI (HOP-92 NSCLC) of the same compound?
The TGI was over 100 µM.

And the TGI (CAKI-1 renal)?
Its TGI is over 100 µM.

And the TGI (HCT-116 colon)?
Its TGI is over 100 µM.

And the TGI (MOLT-4 leukemia)?
The TGI was over 100 µM.

What about the TGI (SK-MEL-28 melanoma) of the same compound?
Its TGI is over 100 µM.

What about the TGI (RPMI-8226 leukemia) of the same compound?
Its TGI is over 100 µM.

And the TGI (UACC-62 melanoma)?
Its TGI is over 100 µM.

And the TGI (HCT-15 colon)?
The TGI was over 100 µM.

Which results are given for `CC1(O)C(C)(O)C(C)(O)C1(C)O` (centres undefined)?
TGI (OVCAR-4 ovarian): > 100 µM; TGI (786-0 renal): > 100 µM; TGI (HT29 colon): > 100 µM; TGI (A549 NSCLC): > 100 µM; TGI (NCI-H226 lung): > 100 µM; TGI (DMS 273 small cell lung): > 100 µM; TGI (LXFL 529 NSCLC): > 100 µM; TGI (DLD-1 colon): > 100 µM; TGI (SK-OV-3 ovarian): > 100 µM; TGI (SNB-78 CNS): > 100 µM; TGI (ACHN renal): > 100 µM; TGI (LOX IMVI melanoma): > 100 µM; TGI (IGROV1 ovarian): > 100 µM; TGI (TK-10 renal): > 100 µM; TGI (OVCAR-3 ovarian): > 100 µM; TGI (SF-539 CNS): > 100 µM; TGI (CCRF-CEM leukemia): > 100 µM; TGI (M14 melanoma): > 100 µM; TGI (SK-MEL-5 melanoma): > 100 µM; TGI (NCI-H522 lung): > 100 µM; TGI (SNB-75 CNS): > 100 µM; TGI (U251 CNS): > 100 µM; TGI (HOP-18 NSCLC): > 100 µM; TGI (OVCAR-8 ovarian): > 100 µM; TGI (SF-295 CNS): > 100 µM; TGI (KM12 colon): > 100 µM; TGI (DMS 114 small cell lung): > 100 µM; TGI (NCI-H23 lung): > 100 µM; TGI (SNB-19 CNS): > 100 µM; TGI (NCI-H460 lung): > 100 µM; TGI (OVCAR-5 ovarian): > 100 µM; TGI (A498 renal): > 100 µM; TGI (MALME-3M melanoma): > 100 µM; TGI (K-562 leukemia): > 100 µM; TGI (KM20L2 colon): > 100 µM; TGI (RXF 393 renal): > 100 µM; TGI (SK-MEL-2 melanoma): > 100 µM; TGI (SW-620 colon): > 100 µM; TGI (EKVX NSCLC): > 100 µM; TGI (UO-31 renal): > 100 µM; TGI (SF-268 CNS): > 100 µM; TGI (HL-60(TB) leukemia): > 100 µM; TGI (COLO 205 colon): > 100 µM; TGI (M19-MEL melanoma): > 100 µM; TGI (HOP-62 NSCLC): > 100 µM; TGI (HCC-2998 colon): > 100 µM; TGI (SN12C renal): > 100 µM; TGI (UACC-257 melanoma): > 100 µM; TGI (XF 498 CNS): > 100 µM; TGI (HOP-92 NSCLC): > 100 µM; TGI (CAKI-1 renal): > 100 µM; TGI (HCT-116 colon): > 100 µM; TGI (MOLT-4 leukemia): > 100 µM; TGI (SK-MEL-28 melanoma): > 100 µM; TGI (UACC-62 melanoma): > 100 µM; TGI (HCT-15 colon): > 100 µM
